Data on two compounds can be found in patent publication US20120058961A1, “Pharmaceutical Composition for Treating Cancers” (HENKAN PHARMACEUTICAL CO., LTD., priority 2010, published 2012).

The assay has as its system Human prostatic carcinoma PC-3 cells. Put plainly: Apoptosis assay (cell death detection ELISA, nucleosome level) in PC-3 cells. The format is cell-based. The method, then:
Human prostatic carcinoma PC-3 cells (ATCC, CRL-1435, USA) were used for apoptosis assay. The apoptosis test was conducted following the method as described by Guseva et al. […] The cell death of each test was detected by ELISA following the method as provided by Holdenrieder et al. (Holdenrieder et al., Quantification of nucleosomes in serum by the cell death detection ELISA^plus. Roche Applied Science Biochemica. 1: 25-27, 2002). The cells were collected after incubation, and then lysed and evaluated for nucleosome levels by ELISA kit (Cell Death Detection ELISA^PLUS Kit, Roche, 1774425). The read absorbance at 405 nm was measured for each test compound or a vehicle and the values of apoptosis % were calculated. […] Assay Reference FasL (3 nM) was added to the control wells (named as Total wells) and the Incubation buffer to the Blank wells. HK-06-[…] at a concentration of 8 μM or 3 μM was added to each well, and the plate was then incubated in Antagonist buffer for 16 hours at 37° C., 5% CO2. The nucleosome level of each well was determined by the cell death detection kit. […] The plate was then incubated in Agonist buffer for 16 hours at 37° C., 5% CO2. The nucleosome level of each well was determined by the cell death detection kit. In the assays for SAHA and HK-06-[…], SAHA at a concentration of 0.1 μM, 1 μM, 10 μM, 100 μM or 300 μM was replaced for the NaB. The HK-06-[…] at a concentration of 4.5 μM was used. Results are expressed as a percentage of the group treated with the test compound as compared to that of the control group.

In the case of `C[C@H](CCC1(O)O[C@H]2C[C@H]3[C@@H]4CC=C5C[C@@H](O[C@@H]6O[C@H](CO)[C@@H](O[C@@H]7O[C@@H](C)[C@H](O[C@@H]8O[C@@H](C)[C@H](O)[C@@H](O)[C@H]8O)[C@@H](O)[C@H]7O)[C@H](O)[C@H]6O[C@@H]6O[C@@H](C)[C@H](O)[C@@H](O)[C@H]6O)CC[C@]5(C)[C@H]4CC[C@]3(C)[C@H]2[C@@H]1C)CO[C@@H]1O[C@H](CO)[C@@H](O)[C@H](O)[C@H]1O` (stereo partly drawn) [HK-06-D01, (25R)-26-O-beta-D-glucopyranosyl-22-hydroxy-5-ene-furostan-3beta, 26-diol-3-O-alpha-L-rhamnopyranosyl-(1→4)-alpha-L-rhamnopyranosyl-(1→4)-[alpha-L-rhamnopyranosyl-(1→2)]-beta-D-glucopyranoside], the “means of Apoptosis %” value by setting is: (8 uM HK-06-D01 only (FIG. 1B)) 51%; (8 uM HK-06-D01 only as printed (FIG. 1C)) 5%; (8 uM HK-06-D01 only, 16 hours, relative to 3 nM Fas Ligand = 100% (FIG. 1A)) 46.67%.

Turning to `CCCC(=O)[O-].[Na+]` [NaB, sodium butyrate], the “means of Apoptosis %” value by setting is: (0.3 mM NaB only (FIG. 1B)) 4%; (0.3 mM NaB only as printed (FIG. 1C)) 3%; (1 mM NaB only, 16 hours, relative to 3 nM Fas Ligand = 100% (FIG. 1A)) 29.67%.
